Some results are limits rather than exact numbers.

The target of the assay is T1, SIRT1 (Homo sapiens, UniProt Q96EB6).
T1 sequence (Q96EB6 1-747): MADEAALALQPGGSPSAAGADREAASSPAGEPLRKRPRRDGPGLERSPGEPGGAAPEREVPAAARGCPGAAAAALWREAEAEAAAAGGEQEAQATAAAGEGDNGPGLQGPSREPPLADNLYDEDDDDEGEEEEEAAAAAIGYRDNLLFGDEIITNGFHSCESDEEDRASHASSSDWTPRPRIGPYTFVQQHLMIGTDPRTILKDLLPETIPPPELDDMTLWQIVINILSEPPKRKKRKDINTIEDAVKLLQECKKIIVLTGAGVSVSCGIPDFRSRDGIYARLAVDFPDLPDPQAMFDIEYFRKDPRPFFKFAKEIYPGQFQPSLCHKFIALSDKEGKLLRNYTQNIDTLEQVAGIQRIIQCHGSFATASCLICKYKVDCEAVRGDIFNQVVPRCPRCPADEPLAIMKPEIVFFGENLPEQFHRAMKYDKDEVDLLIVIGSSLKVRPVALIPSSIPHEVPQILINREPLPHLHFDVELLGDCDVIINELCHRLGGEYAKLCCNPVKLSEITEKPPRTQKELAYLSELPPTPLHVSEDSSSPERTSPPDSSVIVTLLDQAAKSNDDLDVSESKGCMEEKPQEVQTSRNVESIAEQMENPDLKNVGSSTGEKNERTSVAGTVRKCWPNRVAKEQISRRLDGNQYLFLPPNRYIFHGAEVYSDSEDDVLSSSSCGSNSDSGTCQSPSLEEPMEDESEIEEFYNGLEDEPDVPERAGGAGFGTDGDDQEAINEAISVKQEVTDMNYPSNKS
The experiment in a line: Mass spectrometry based SIRT1 deacetylase activation assay. Type of assay: biochemical. The settings on record: for Emax: 25 min, percent maximum fold activation of SIRT1, read-out: SIRT1 % FOLD ACT.; for EC1.5 (concentration giving 150% activation): concentration of test compound that results in 150% activation of SIRT1. An excerpt: A mass spectrometry based assay was used to identify modulators of SIRT1 activity. The mass spectrometry based assay utilizes a peptide having 20 amino acid residues as follows: Ac-EE-K(biotin)-GQSTSSHSK(Ac)NleSTEG-K(5TMR)-EE-NH2 (SEQ ID NO: 1) wherein K(Ac) is an acetylated lysine residue and Nle is a norleucine. The peptide is labeled with the fluorophore 5TMR (excitation 540 nm/emission 580 nm) at the C-terminus. The sequence of the peptide substrate is based on p53 with several modifications. In addition, the methionine residue naturally present in the sequence was replaced with the norleucine because the methionine may be susceptible to oxidation during synthesis and purification.
The mass spectrometry assay is conducted as follows: 0.5 μM peptide substrate and 120 μM βNAD^+ is incubated with 10 nM SIRT1 for 25 minutes at 25° C. in a reaction buffer (50 mM Tris-acetate pH 8, 137 mM NaCl, 2.7 mM KCl, 1 mM MgCl2, 5 mM DTT, 0.05% BSA). Test compounds may be added to the reaction as described above. The SirT1 gene is cloned into a T7-promoter containing vector and transformed into BL21(DE3). After the 25 minute incubation with SIRT1, 10 μL of 10% formic acid is added to stop the reaction. Reactions are sealed and frozen for later mass spec analysis. Determination of the mass of the substrate peptide allows for precise determination of the degree of acetylation (i.e. starting material) as compared to deacetylated peptide (product).
A control for inhibition of sirtuin activity is conducted by adding 1 μL of 500 mM nicotinamide as a negative control at the start of the reaction (e.g., permits determination of maximum sirtuin inhibition). A control for activation of sirtuin activity is conducted using 10 nM of sirtuin protein, with 1 μL of DMSO in place of compound, to determine the amount of deacetylation of the substrate at a given timepoint within the linear range of the assay. This timepoint is the same as that used for test compounds and, within the linear range, the endpoint represents a change in velocity.
For the above assay, SIRT1 protein was expressed and purified as follows. The SirT1 gene was cloned into a T7-promoter containing vector and transformed into BL21(DE3). The protein was expressed by induction with 1 mM IPTG as an N-terminal His-tag fusion protein at 18° C. overnight and harvested at 30,000×g. Cells were lysed with lysozyme in lysis buffer (50 mM Tris-HCl, 2 mM Tris[2-carboxyethyl]phosphine (TCEP), 10 μM ZnCl2, 200 mM NaCl) and further treated with sonication for 10 min for complete lysis. The protein was purified over a Ni-NTA column (Amersham) and fractions containing pure protein were pooled, concentrated and run over a sizing column (Sephadex S200 26/60 global). The peak containing soluble protein was collected and run on an Ion-exchange column (MonoQ). Gradient elution (200 mM-500 mM NaCl) yielded pure protein. This protein was concentrated and dialyzed against dialysis buffer (20 mM Tris-HCl, 2 mM TCEP) overnight. The protein was aliquoted and frozen at −80° C. until further use.
Sirtuin modulating compounds that activated SIRT1 were identified using the assay described above and are shown below in Table 1. The EC1.5 values represent the concentration of test compounds that result in 150% activation of SIRT1. The EC1.5 values for the activating compounds are represented by A (EC1.5 <5 μM), B (EC1.5 5-50 μM), or C (EC1.5 >50 μM). The percent maximum fold activation is represented by A (Fold activation >150%) or B (Fold Activation <150%).

With `O=C(Nc1cccc2c1C(=O)N(c1cccc(C(F)(F)F)c1)CC2)c1cscn1` [Compound 100], the Emax is greater than 150% and the EC1.5 (concentration giving 150% activation) is 5 to 50 µM.

As for `O=C(Nc1cccc2c1C(=O)N(c1cccc(C(F)(F)F)c1)CC2)c1cnccn1` [Compound 101, N-(1-oxo-2-(3-(trifluoromethyl)phenyl)-1,2,3,4-tetrahydroisoquinolin-8-yl)pyrazine-2-carboxamide], the Emax is greater than 150% and the EC1.5 (concentration giving 150% activation) lay within 5 to 50 µM.

`O=C(Nc1cccc2cnn(-c3cccc(C(F)(F)F)c3)c(=O)c12)c1cscn1` [Compound 102]: the Emax was less than 150% and the EC1.5 (concentration giving 150% activation) is less than 5 µM.

As for `O=C(Nc1cccc2cnn(-c3cccc(C(F)(F)F)c3)c(=O)c12)c1cnccn1` [Compound 103, N-(4-oxo-3-(3-(trifluoromethyl)phenyl)-3,4-dihydrophthalazin-5-yl)pyrazine-2-carboxamide], the Emax was greater than 150% and the EC1.5 (concentration giving 150% activation) was in the range of 5 to 50 µM.

In the case of `O=C(Nc1cccc2cnn(-c3cccc(C(F)(F)F)c3)c(=O)c12)C1CCOCC1` [Compound 104], the EC1.5 (concentration giving 150% activation) is greater than 50 µM.

Regarding `O=C(Nc1cccc2cnn(-c3cccc(C(F)(F)F)c3)c(=O)c12)c1cccc(OCC(O)CO)n1` (centres unmarked) [Compound 105, 6-(2,3-dihydroxypropoxy)-N-(4-oxo-3-(3-(trifluoromethyl)phenyl)-3,4-dihydrophthalazin-5-yl)picolinamide], the Emax was greater than 150% and the EC1.5 (concentration giving 150% activation) was less than 5 µM.

`O=C(Nc1cccc2cnn(-c3cccc(C(F)(F)F)c3)c(=O)c12)c1cccc(CN2CCOCC2)n1` [Compound 106, 6-(morpholinomethyl)-N-(4-oxo-3-(3-(trifluoromethyl)phenyl)-3,4-dihydrophthalazin-5-yl)picolinamide]: the Emax is greater than 150% and the EC1.5 (concentration giving 150% activation) is less than 5 µM.

For `O=C(Nc1cccc2cnn(-c3cccc(OC(F)(F)F)c3)c(=O)c12)c1cccc(OCC(O)CO)n1` (centres unmarked) [Compound 107, 6-(2,3-dihydroxypropoxy)-N-(4-oxo-3-(3-(trifluoromethoxy)phenyl)-3,4-dihydrophthalazin-5-yl)picolinamide], the Emax is greater than 150% and the EC1.5 (concentration giving 150% activation) was less than 5 µM.

For `O=C(Nc1cccc2cnn(-c3cccc(OC(F)(F)F)c3)c(=O)c12)c1cccc(CN2CCOCC2)n1` [Compound 108, 6-(morpholinomethyl)-N-(4-oxo-3-(3-(trifluoromethoxy)phenyl)-3,4-dihydrophthalazin-5-yl)picolinamide], the Emax was greater than 150% and the EC1.5 (concentration giving 150% activation) was less than 5 µM.

The values are drawn from US20130190309A1, “PHTHALAZINONE AND RELATED ANALOGS AS SIRTUIN MODULATORS” (priority 2009, published 2013).
